Calls of active or inactive are those of the source. The rule behind the calls is not given here.
Columns and labels:
[1] = molecular target: T1, DNA topoisomerase 1 (Homo sapiens) (UniProt P11387); experiment: Induction of TOP1 degradation in human HCT-116 cells at 20 uM after 2 to 24 hrs by alkaline lysis method; format: cell-based; conditions: time 2-24 hrs
T1 sequence (whole entry): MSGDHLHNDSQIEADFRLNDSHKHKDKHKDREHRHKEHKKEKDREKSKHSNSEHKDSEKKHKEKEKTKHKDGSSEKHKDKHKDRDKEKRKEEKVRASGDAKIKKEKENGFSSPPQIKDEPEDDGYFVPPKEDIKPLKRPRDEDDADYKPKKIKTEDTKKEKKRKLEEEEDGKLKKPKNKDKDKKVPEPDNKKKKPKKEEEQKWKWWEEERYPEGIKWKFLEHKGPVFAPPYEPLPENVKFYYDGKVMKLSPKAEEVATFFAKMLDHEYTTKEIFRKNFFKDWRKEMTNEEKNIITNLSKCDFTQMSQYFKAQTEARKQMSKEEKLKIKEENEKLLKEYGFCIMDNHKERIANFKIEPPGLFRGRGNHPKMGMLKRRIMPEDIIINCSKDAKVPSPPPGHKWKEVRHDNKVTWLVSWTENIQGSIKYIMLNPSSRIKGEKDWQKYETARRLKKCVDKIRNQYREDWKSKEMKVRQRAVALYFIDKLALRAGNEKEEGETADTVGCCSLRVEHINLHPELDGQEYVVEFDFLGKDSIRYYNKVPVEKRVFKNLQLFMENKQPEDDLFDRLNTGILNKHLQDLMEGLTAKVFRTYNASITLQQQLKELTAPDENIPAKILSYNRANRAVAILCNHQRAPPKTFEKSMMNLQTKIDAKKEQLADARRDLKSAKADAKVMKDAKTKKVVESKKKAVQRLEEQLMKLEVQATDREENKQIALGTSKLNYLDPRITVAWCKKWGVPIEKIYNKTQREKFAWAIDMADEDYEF

[2] = molecular target: Poly [ADP-ribose] polymerase 1 (Homo sapiens) (UniProt P09874); experiment: Inhibition of recombinant human PARP1 at 20 uM incubated for 10 mins relative to control
Poly [ADP-ribose] polymerase 1 (Homo sapiens), sequence (P09874 whole entry): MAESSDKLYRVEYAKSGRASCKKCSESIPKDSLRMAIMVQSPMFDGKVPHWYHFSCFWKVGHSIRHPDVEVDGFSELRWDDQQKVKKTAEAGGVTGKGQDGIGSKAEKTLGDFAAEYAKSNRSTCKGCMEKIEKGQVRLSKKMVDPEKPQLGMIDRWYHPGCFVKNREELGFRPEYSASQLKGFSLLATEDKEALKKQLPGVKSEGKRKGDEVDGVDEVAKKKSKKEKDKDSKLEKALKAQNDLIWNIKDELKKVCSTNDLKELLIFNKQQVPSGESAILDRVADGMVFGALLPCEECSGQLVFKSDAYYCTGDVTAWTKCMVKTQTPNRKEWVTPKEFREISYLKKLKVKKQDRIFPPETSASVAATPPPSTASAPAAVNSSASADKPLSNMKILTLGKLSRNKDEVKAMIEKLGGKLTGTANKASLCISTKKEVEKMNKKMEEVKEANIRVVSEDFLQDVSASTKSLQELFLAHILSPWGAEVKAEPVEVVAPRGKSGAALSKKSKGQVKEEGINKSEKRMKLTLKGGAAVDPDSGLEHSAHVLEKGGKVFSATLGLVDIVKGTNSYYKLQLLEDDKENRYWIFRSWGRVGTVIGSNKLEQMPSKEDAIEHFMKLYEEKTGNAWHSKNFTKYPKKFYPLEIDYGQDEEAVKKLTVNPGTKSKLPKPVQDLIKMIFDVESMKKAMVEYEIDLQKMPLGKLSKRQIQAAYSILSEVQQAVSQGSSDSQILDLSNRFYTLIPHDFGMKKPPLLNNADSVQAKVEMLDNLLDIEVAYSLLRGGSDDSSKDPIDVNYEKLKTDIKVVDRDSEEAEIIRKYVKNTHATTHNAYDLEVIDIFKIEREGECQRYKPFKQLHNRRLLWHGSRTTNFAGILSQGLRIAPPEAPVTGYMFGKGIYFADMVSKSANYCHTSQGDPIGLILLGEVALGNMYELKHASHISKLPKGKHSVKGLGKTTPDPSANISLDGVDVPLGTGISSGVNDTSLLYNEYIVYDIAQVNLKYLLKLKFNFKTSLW

HCT-116 [3] = experiment: Cytotoxicity against human HCT-116 cells incubated for 72 hrs by MTT assay; format: functional, cell-based; conditions: HCT-116, 72 h
Calf thymus DNA [4] = experiment: Binding affinity to calf thymus pUC19 DNA assessed as intercalating activity by measuring conformational change in DNA at 50 to 300 uM incubated for 30 mins by EtBr staining based agarose gel electrophoresis; format: nucleic-acid assay; conditions: Bos taurus, dose 50-300 µM
[5] = system: DNA topoisomerase 1/Deoxyribonucleic acid (Homo sapiens); experiment: Induction of TOP1-DNA covalent complex stabilization in human HCT-116 cells after 2 to 8 hrs by immunofluorescence microscopic assay; format: cell-based; conditions: dose 20.0 µM, time 2-8 hrs
HCT-116 [6] = experiment: Induction of cell cycle arrest in human HCT-116 cells assessed as accumulation of cells at Sub-G1 phase at 10 uM incubated for 48 hrs by PI staining based flow cytometry analysis (reference value: 2.7 +/- 0.4%); format: functional
[7] = molecular target: Poly [ADP-ribose] polymerase 1 (Homo sapiens) (UniProt P09874); experiment: Inhibition of recombinant human PARP1 at 30 uM incubated for 10 mins relative to control
Calf thymus DNA [8] = experiment: Displacement of EtBr from calf thymus pUC19 DNA preincubated with EtBr for 15 mins followed by compound addition and measured after 30 mins by […] staining based fluorescence assay; format: nucleic-acid assay; conditions: Bos taurus, dose 100-300 µM
[9] = system: DNA topoisomerase 1/Deoxyribonucleic acid (Homo sapiens); experiment: Induction of TOP1-DNA covalent complex stabilization in human HCT-116 cells at 10 to 20 uM by RADAR assay; format: cell-based; conditions: dose 10-20 µM, time 2-6 hrs, TDE = time-dependent effect
HCT-116 [10] = experiment: Induction of cell cycle arrest in human HCT-116 cells assessed as accumulation of cells at S phase at 5 uM incubated for 48 hrs by PI staining based flow cytometry analysis (reference value: 17%); format: functional
HCT-116 [11] = experiment: Induction of cell cycle arrest in human HCT-116 cells assessed as accumulation of cells at Sub-G1 phase at 20 uM incubated for 48 hrs by PI staining based flow cytometry analysis (reference value: 2.7 +/- 0.4%); format: functional
[12] = system: DNA topoisomerase 1/Deoxyribonucleic acid (Homo sapiens); experiment: Induction of TOP1-DNA covalent complex stabilization in human HCT-116 cells at 20 uM by immunofluorescence microscopic assay; format: cell-based; conditions: time 2-8 hrs, TDE = time-dependent effect
HCT-116 [13] = experiment: Induction of DNA double stranded break in human HCT-116 cells assessed as increase in gammaH2AX level at 20 uM after 4 to 8 hrs by immunofluorescence assay; format: functional, cell-based; conditions: time 4-8 hrs

- Activity [1]: Active
- inhibition [2]: 25%
- Activity (Calf thymus DNA [4]): inactive
- Activity [5]: Dose-Dependent Effect
- inhibition [7]: 35%
- Activity (Calf thymus DNA [8]): Dose-Dependent Effect
- Activity [9]: Tde
- Activity [12]: Tde
SMILES: O=C1c2cccc3cccc(c23)C(=O)N1CCSc1nnc(Cn2nc(Cc3ccc(F)cc3)c3ccccc3c2=O)o1
- IC50 (HCT-116 [3]): 4 µM
- Activity (HCT-116 [6]): 44.2%
- Activity (HCT-116 [10]): 30%
- Activity (HCT-116 [11]): 57%
- Activity (HCT-116 [13]): Active

From ChEMBL document CHEMBL5620416, “Design, synthesis and development of a dual inhibitor of Topoisomerase 1 and poly (ADP-ribose) polymerase 1 for efficient killing of cancer cells” (Eur J Med Chem, 2023)
